Source: patent publication US11059795B2, “Androgen receptor modulators and methods for their use” (ESSA Pharma, Inc., priority 2018, dated 2021)

Columns and labels:
[1] = In vivo pharmacokinetics in plasma after oral gavage (PO) in male CD-1 mice; settings: plasma, single PO dose 5 mg/kg, male CD-1 mice; for bioavailability / AUC(0-t) / Cmax / Tmax / half-life: mouse; for bioavailability: oral availability; for half-life: read-out: t½ (converted)
Description: The purpose of this study is to determine the pharmacokinetics of the tested compounds in plasma, following oral gavage administration (PO) to male CD-1 mice.
Animal Husbandry: Animals were group housed during acclimation and the study. The animal room environment were controlled (target conditions: temperature 18 to 26° C., relative humidity 30 to 70%, 12 hours artificial light and 12 hours dark). Temperature and relative humidity were monitored daily. Animals were fasted at least 12 hours prior to the administration. All animals had access to Certified Rodent Diet ad libitum 4 hours post dosing.
Dose Formulation: prepared 85-100 uL of a stock solution of representative compounds of the disclosure in DMSO at 50 mM; 1.5% v/v of Tween 80 were added and mixed gently; 95.5% v/v saline was added gently to the organic phase. The solution was mixed slowly by reverse pipetting to get a clear solution.
Dose Administration: the dose formulations were administered via oral gavage per facility SOPs. The dose volume were determined by the animals' body weight collected on the morning of dosing day
Sample Collection: blood collection (about 0.05 mL per time point) was performed from saphenous vein of each animal into polypropylene tubes at each timepoints (0, 0.25, 0.5, 1, 2, 4, 8, 12, and 24 hr). All blood samples were transferred into pre-chilled tubes containing 2 μL of K2-EDTA (0.5M) and placed on wet ice until centrifugation. Each collected blood sample was in the wet-ice before centrifugation. Each collected blood was under centrifugation for 15 minutes at 4° C. and 3000 g for plasma collection. Plasma samples were stored in polypropylene tubes, quickly frozen over dry ice and kept at −70±10° C. until LC/MS/MS analysis.
Bioanalytical analysis: A LC-MS/MS method for the quantitative determination of tested compound in biological matrix were developed under non-GLP compliance. A calibration curve with at least 7 non-zero calibration standards were applied for the method including LLOQ.
Plasma concentration versus time data were analyzed by non-compartmental approaches using the Phoenix WinNonlin 6.3 software program. Cl, Vdss, C0, Cmax, Tmax, T^1/2, AUC(0-t), AUC(0-inf), MRT(0-t), MRT(0-inf), % F (oral availability) and graphs of plasma concentration versus time profile were reported.

[2] = Microsomal stability assay, mouse liver microsomes; assay type: in vitro ADME; settings: mouse, liver microsomes, pH 7.4, mouse liver microsomes, 1 μM compound, 0.5 mg/mL protein, 37° C.; read-out: MLM +30/− NADPH: Clint (μL/min/mg protein)
In short: (§1)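 Compound at 1 μM was incubated at 37° C with 0.5 mg/mL liver microsomes and 1 mM NADPH and/or 1 mM UDPGA (with alamethicin) in 100 mM potassium phosphate pH 7.4, 3 mM MgCl2. Samples were taken at 0, 15, 30 and 60 min and measured by LC/MS/MS. t½ came from compound loss relative to 0 min, and Clint was scaled with 45 mg microsomal protein/g liver.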

[3] = Microsomal stability assay, human liver microsomes; assay type: in vitro ADME; settings: pH 7.4, 1 μM compound, 0.5 mg/mL protein, 37° C., read-out: HLM +/− NADPH: Clint (μL/min/mg protein)
In short: as §1

androgen receptor (AR) = target: T1, androgen receptor (AR) (Homo sapiens, UniProt P10275, T878A); experiment: Androgen-induced PSA (6.1 kb)-luciferase reporter assay in LNCaP cells; assay type: cell-based; settings: LNCaP cells transfected with PSA (6.1 kb)-luciferase reporter, R1881 1 nM, 24 h; read-out: PSA-Luc IC50 Range
T1 construct: LNCaP cells were transiently transfected with the PSA (6.1 kb)-luciferase reporter for 24 h; endogenous in cells; host or cells: LNCaP
T1 sequence (P10275 1-920 T878A): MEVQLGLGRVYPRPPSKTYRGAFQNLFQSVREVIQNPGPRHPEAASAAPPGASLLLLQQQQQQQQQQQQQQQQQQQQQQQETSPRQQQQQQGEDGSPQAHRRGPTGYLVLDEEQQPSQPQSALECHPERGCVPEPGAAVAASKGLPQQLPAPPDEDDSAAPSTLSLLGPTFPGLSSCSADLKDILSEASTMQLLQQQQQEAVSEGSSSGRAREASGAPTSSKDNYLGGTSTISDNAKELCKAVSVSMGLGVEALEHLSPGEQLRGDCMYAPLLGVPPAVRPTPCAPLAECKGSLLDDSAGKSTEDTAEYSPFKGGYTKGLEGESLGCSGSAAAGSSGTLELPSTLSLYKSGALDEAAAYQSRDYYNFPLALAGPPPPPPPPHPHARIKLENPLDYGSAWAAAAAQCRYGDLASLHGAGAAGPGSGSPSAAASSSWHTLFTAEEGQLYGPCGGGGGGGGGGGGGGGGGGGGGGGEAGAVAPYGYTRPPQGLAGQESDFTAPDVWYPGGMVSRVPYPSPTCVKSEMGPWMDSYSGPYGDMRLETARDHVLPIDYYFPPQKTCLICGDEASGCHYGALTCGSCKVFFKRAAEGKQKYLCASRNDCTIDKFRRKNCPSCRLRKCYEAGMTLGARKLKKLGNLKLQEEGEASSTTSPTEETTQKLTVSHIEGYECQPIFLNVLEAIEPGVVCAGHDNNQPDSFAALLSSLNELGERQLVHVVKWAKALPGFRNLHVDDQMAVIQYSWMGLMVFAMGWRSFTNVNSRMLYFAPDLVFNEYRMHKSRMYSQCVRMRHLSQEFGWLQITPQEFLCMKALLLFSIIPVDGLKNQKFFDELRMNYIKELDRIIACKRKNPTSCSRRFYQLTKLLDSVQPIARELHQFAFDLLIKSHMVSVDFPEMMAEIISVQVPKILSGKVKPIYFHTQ
In short: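 LNCaP cells carrying a PSA (6.1 kb) promoter-luciferase reporter with AREs; androgen-induced firefly luciferase read from lysates for 10 s. RLU normalized to protein content; IC50 calculated from the normalized data.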

[4] = target: T2, LBD of progesterone receptor-beta (PRβ) fused to DBD of GAL4 (Homo sapiens, UniProt P06401); experiment: LBD-expressing reporter assay (GeneBLAzer), PR LBD; assay type: cell-based; settings: inhibition of maximal activity attained with agonist; read-out: Steroid Receptor LBD IC50 (μM) PR
T2 sequence (P06401 679-913 limits assumed): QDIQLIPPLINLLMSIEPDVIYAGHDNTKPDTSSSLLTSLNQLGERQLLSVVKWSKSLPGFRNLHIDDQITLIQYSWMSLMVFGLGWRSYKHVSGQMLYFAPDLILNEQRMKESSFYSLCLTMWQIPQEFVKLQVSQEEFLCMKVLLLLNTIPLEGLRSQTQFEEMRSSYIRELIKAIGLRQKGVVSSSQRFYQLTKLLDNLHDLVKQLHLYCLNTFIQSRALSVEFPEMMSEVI
Source text: (§2) This assay uses cells that stably express a chimera fusion protein comprising the LBD of a steroid hormone receptor fused to the DNA-binding domain (DBD) of GAL4 along with beta-lactamase reporter under transcriptional control of an upstream activator sequence (UAS). When agonist binds to the LBD of the GAL4 (DBD)-steroid hormone (LBD) chimera fusion protein, the protein binds to the UAS, resulting in expression of beta-lactamase. LBDs of androgen receptor (AR), progesterone receptor-beta (PRβ), glucocorticoid receptor (GR), estrogen receptor-α (ERα), and estrogen receptor-β (ERβ) were tested and IC50s calculated for inhibiting maximal activity attained with agonist.

[5] = target: T3, LBD of estrogen receptor-α (ERα) fused to DBD of GAL4 (Homo sapiens, UniProt P03372); experiment: LBD-expressing reporter assay (GeneBLAzer), ERα LBD; assay type: cell-based; settings: inhibition of maximal activity attained with agonist; read-out: Steroid Receptor LBD IC50 (μM) ERα
T3 sequence (P03372 311-547 limits assumed): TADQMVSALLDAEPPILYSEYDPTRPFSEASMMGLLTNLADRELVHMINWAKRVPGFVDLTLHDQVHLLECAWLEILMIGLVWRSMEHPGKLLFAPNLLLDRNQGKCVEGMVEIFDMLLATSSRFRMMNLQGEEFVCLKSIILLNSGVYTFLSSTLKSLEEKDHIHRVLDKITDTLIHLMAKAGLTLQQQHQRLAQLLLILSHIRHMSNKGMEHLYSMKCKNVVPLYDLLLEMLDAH
Source text: as §2

LNCaP cells = experiment: Cell proliferation/viability assay, LNCaP (Alamar blue); assay type: cell-based; settings: Homo sapiens, AR specific proliferation with 0.1 nM R1881, read-out: Cellular Proliferation/Viability IC50 (μM) LNCaP
Description: (§3) Cell proliferation/viability was measured in LNCaP and PC3 cells with Alamar blue, and proliferation was measured in LN-CaP95 cells with BrdU incorporation. In LNCaP cells, AR specific proliferation is calculated by measuring the difference between control cells treated with or without 0.1 nM R1881.

[6] = target: LBD of estrogen receptor-β (ERβ) fused to DBD of GAL4 (Homo sapiens, UniProt Q92731); experiment: LBD-expressing reporter assay (GeneBLAzer), ERβ LBD; assay type: cell-based; settings: inhibition of maximal activity attained with agonist; read-out: Steroid Receptor LBD IC50 (μM) ERβ
Source text: as §2, with “To assess if the representative compounds (Compounds A13, A28, A38, A74, A93, and A109) compete with ligand (agonist) for the ligand-binding domain (LBD) of steroid hormone receptors (which would be off-target), the GeneBLAzer assay was employed (Thermo Fisher). This” for “This”

[7] = target: T4, LBD of glucocorticoid receptor (GR) fused to DBD of GAL4 (Homo sapiens, UniProt P04150); experiment: LBD-expressing reporter assay (GeneBLAzer), GR LBD; assay type: cell-based; settings: inhibition of maximal activity attained with agonist; read-out: Steroid Receptor LBD IC50 (μM) GR
T4 sequence (P04150 524-758 limits assumed): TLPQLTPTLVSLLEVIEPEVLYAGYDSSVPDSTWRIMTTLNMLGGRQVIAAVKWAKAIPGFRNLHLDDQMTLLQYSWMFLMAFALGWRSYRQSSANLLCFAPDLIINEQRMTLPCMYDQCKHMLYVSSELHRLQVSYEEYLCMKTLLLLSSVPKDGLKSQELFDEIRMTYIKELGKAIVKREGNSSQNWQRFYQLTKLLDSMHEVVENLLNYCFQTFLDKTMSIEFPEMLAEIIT
Source text: as §2

PC3 cells = experiment: Cell proliferation/viability assay, PC3 (Alamar blue); assay type: cell-based; settings: Homo sapiens; PC-3, Alamar blue; read-out: Cellular Proliferation/Viability IC50 (μM) PC-3
Description: as §3

LN-CaP95 cells = experiment: Cell proliferation assay, LNCaP95 (BrdU incorporation); assay type: cell-based; settings: LNCaP-95, read-out: Cellular Proliferation/Viability IC50 (μM) LNCaP95
Description: as §3

[8] = Hepatocyte stability assay, mouse hepatocytes; assay type: in vitro ADME; settings: mouse, cryopreserved hepatocytes, 1 μM compound, 0.5 million cells/mL, 37° C., read-out: MH +/− NADPH: Clint (μL/min/million cells)
In short: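 Cryopreserved rat, human or mouse hepatocytes at 0.5 million cells/mL in DMEM with 1 μM compound, 37° C, sampled at 0, 60, 120 and 180 min and quenched with acetonitrile/formic acid. Parent loss vs 0-min by LC/MS/MS gave t½, and Clint = 0.693/t½ × mL incubation/million cells.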

LBD of estrogen receptor-β (ERβ) fused to DBD of GAL4, sequence (Q92731 264-498 limits assumed): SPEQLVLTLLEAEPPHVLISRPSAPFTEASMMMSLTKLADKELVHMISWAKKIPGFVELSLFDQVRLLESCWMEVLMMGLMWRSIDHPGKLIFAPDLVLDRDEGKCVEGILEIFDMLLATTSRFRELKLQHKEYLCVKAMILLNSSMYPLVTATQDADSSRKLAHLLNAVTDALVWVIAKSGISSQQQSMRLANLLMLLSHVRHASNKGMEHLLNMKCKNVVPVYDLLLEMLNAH

`Cc1cc(C(C)(C)c2ccc(OCc3ocnc3S(C)(=O)=O)cc2)cc(C#N)c1OCCCl` [Compound A29, 2-(2-chloroethoxy)-3-methyl-5-(2-(4-((4-(methylsulfonyl)oxazol-5-yl)methoxy)phenyl)propan-2-yl)benzonitrile] showed a bioavailability [1] of 60.6%, an AUC(0-t) [1] of 5190 ng·h/mL and a Cmax [1] of 2010 ng/mL. The Tmax [1] was 0.5 h, the half-life [1] was 2.5 h and the “AUC/D” value [1] was 1037.3 kg·ng·h/mL/mg. The microsomal CLint at 1 μM [2] was 12 to 48 µL/min/mg, the microsomal CLint at 1 μM [3] was 12 to 48 µL/min/mg and the IC50 (androgen receptor (AR)) was under 0.5 µM.

Work on `CC(C)(c1ccc(OCc2ncc(S(C)(=O)=O)o2)cc1)c1cc(Cl)c(OCCCl)c(Cl)c1` [Compound A66] yielded a bioavailability [1] of 71.4%, an AUC(0-t) [1] of 11900 ng·h/mL and a Cmax [1] of 1610 ng/mL. For the same compound, the Tmax [1] was 0.8 h, the half-life [1] was 12 h and the “AUC/D” value [1] was 2385.4 kg·ng·h/mL/mg. The microsomal CLint at 1 μM [2] was under 12 µL/min/mg, the microsomal CLint at 1 μM [3] was under 12 µL/min/mg and the IC50 (androgen receptor (AR)) was 0.5 to 2 µM.

`CC(C)(c1ccc(OC[C@H](O)CO)cc1)c1ccc(OC[C@H](O)CCl)cc1` [EPI-002, reference compound] showed an IC50 [4] of over 10 µM, an IC50 [5] of over 10 µM and an IC50 (LNCaP cells) of 9 µM. For the same compound, the IC50 [6] was over 10 µM, the IC50 [7] was over 10 µM and the IC50 (PC3 cells) was over 10 µM. The IC50 (LN-CaP95 cells) was about 20 µM.

With `CC(Oc1ccc(C(C)(C)c2cc(Cl)c(OCCCl)c(Cl)c2)cc1)c1ocnc1S(C)(=O)=O` (centres unmarked) [Compound A35, 5-(1-(4-(2-(3,5-Dichloro-4-(2-chloroethoxy)phenyl)propan-2-yl)phenoxy)ethyl)-4-(methylsulfonyl)oxazole] the bioavailability [1] was 49.6%, the AUC(0-t) [1] was 2420 ng·h/mL and the Cmax [1] was 819 ng/mL. The Tmax [1] was 0.5 h, the half-life [1] was 4 h and the “AUC/D” value [1] was 483.0 kg·ng·h/mL/mg. It also gave a microsomal CLint at 1 μM [2] of 12 to 48 µL/min/mg, a microsomal CLint at 1 μM [3] of under 12 µL/min/mg and an IC50 (androgen receptor (AR)) of 0.5 to 2 µM.

For `CC(C)(c1ccc(OCc2ncoc2S(C)(=O)=O)cc1)c1cc(Cl)c(OCCCl)c(C#N)c1` [Compound A141], the microsomal CLint at 1 μM [2] was at least 48 µL/min/mg, the microsomal CLint at 1 μM [3] was under 12 µL/min/mg and the IC50 (androgen receptor (AR)) was under 0.5 µM. The hepatocyte CLint at 1 μM [8] was at least 18 µL/min/1e6 cells.
